Data taken from EP0400805A1, “Cephalosporin compounds and their use” (Ishimaru, Toshiyasu, priority 1989, dated 1990).

Experiments:
Experiment in all cases: MIC by agar dilution method
Format in all cases: cell-based
Set-up in all cases: unit not given here
Bacillus subtilis = tested on: Bacillus subtilis
Protocol: (§1) The following Table 1 show minimum inhibitory concentrations (MIC) against Gram-positive and Gram-negative bacteria of representative compounds of the invention. MIC was measured by agar dilution method.

Enterobacter cloacae = tested on: Enterobacter cloacae
Protocol: as §1

Escherichia coli NIHJ = tested on: Escherichia coli NIHJ
Protocol: as §1

Klebsiella pneumoniae = tested on: Klebsiella pneumoniae
Protocol: as §1

Proteus mirabilis = tested on: Proteus mirabilis
Protocol: as §1

[1] = tested on: Pseudomonas aerugenosa GN
Protocol: as §1

Pseudomonas aerugenosa = tested on: Pseudomonas aerugenosa
Protocol: as §1

Salmonella typhi = tested on: Salmonella typhi
Protocol: as §1

Serratia marcescens = tested on: Serratia marcescens
Protocol: as §1

Staph. aureus Smith = tested on: Staph. aureus Smith
Protocol: as §1

Staph. epidermidis = tested on: Staph. epidermidis
Protocol: as §1

Compound | Minimum Inhibitor Concentration (MIC) (Bacillus subtilis) | Minimum Inhibitor Concentration (MIC) (Enterobacter cloacae) | Minimum Inhibitor Concentration (MIC) (Escherichia coli NIHJ) | Minimum Inhibitor Concentration (MIC) (Klebsiella pneumoniae) | Minimum Inhibitor Concentration (MIC) (Proteus mirabilis) | Minimum Inhibitor Concentration (MIC) [1] | Minimum Inhibitor Concentration (MIC) (Pseudomonas aerugenosa) | Minimum Inhibitor Concentration (MIC) (Salmonella typhi) | Minimum Inhibitor Concentration (MIC) (Serratia marcescens) | Minimum Inhibitor Concentration (MIC) (Staph. aureus Smith) | Minimum Inhibitor Concentration (MIC) (Staph. epidermidis)
Nc1nc(/C(=N/OCc2cc(Cl)c(O)c(O)c2Cl)C(=O)NC2C(=O)N3C(C(=O)[O-])=C(CSc4cnns4)CS[C@H]23)cs1.[Na+] (stereo partly shown) [Example 1, Sodium 7-[2-(2-aminothiazol-4-yl)-2(Z)-(2,5-dichloro-3,4-dihydroxybenzyloxyimino)acetamido]-3-(1,2,3-thiadiazol-5-yl)thiomethyl-3-cephem-4-carboxylate] | 0.78 | 0.20 | 0.05 | 0.05 | 0.05 | 0.39 | 0.39 | 0.10 | 0.10 | 0.10 | 0.20
Nc1nc(/C(=N/OCc2ccc(O)c(O)c2Cl)C(=O)NC2C(=O)N3C(C(=O)[O-])=C(CSc4cnns4)CS[C@H]23)cs1.[Na+] (stereo partly shown) [Example 2, Sodium 7-[2-(2-aminothiazol-4-yl)-2(Z)-(2-chloro-3,4-dihydroxybenzyloxyimino)acetamido]-3-(1,2,3-thiadiazol-5-yl)thiomethyl-3-cephem-4-carboxylate] | 0.20 | 0.78 | 0.78 | 0.20 | 0.05 | 6.25 | 0.78 | 0.20 | 0.78 | 0.20 | 0.20
C[n+]1ccc(SCC2=C(C(=O)[O-])N3C(=O)C(NC(=O)/C(=N\OCc4cc(Cl)c(O)c(O)c4Cl)c4csc(N)n4)C3SC2)cc1 (stereo not shown) [Example 3, 7-[2-(2-aminothiazol-4-yl)-2(Z)-(2,5-dichloro-3,4-di hydroxybenzyloxyimino)acetamido]-3-(N-methylpyridin-4-yl)thiomethyl-3-cephem-4-carboxylic acid] | 0.78 | 0.20 | 0.05 | 0.05 | 0.025 | 0.39 | 0.39 | 0.39 | 0.05 | 0.39 | 0.39
Nc1nc(/C(=N/OCc2ccc(O)c(O)c2)C(=O)NC2C(=O)N3C(C(=O)[O-])=C(CSc4cnns4)CS[C@H]23)cs1.[Na+] (stereo partly shown) [Example 5, Sodium 7-[2-(2-aminothiazol-4-yl)-2(Z)-(3,4-dihydroxybenzyloxyimino)acetamido]-3-(1,2,3-thiadiazol-5-yl)thiomethyl-3-cephem-4-carboxylate] | 0.39 | 0.78 | 0.05 | 0.05 | 0.10 | 0.78 | 0.39 | 0.10 | 0.10 | 0.10 | 0.78
Nc1nc(/C(=N/OCc2cc(O)c(O)c(Cl)c2)C(=O)NC2C(=O)N3C(C(=O)O)=C(CSc4cnns4)CSC23)cs1 (stereo not shown) [Example 7] | 1.56 | 6.25 | < 0.05 | < 0.05 | < 0.05 | 1.56 | 0.78 | < 0.05 | < 0.05 | 0.01 | 0.78
Nc1nc(/C(=N/OCc2cc(F)c(O)c(O)c2F)C(=O)NC2C(=O)N3C(C(=O)[O-])=C(CSc4cnns4)CS[C@H]23)cs1.[Na+] (stereo partly shown) [Example 8, Sodium 7-[2-(2-aminothiazol-4-yl)-2(Z)-(2,5-difluoro-3,4-dihydroxybenzyloxyimino)acetamido]-3-(1,2,3-thiadiazol-5-yl)thiomethyl-3-cephem-4-carboxylate] | 1.56 | 3.13 | < 0.05 | < 0.05 | < 0.05 | 0.78 | 0.39 | < 0.05 | < 0.05 | 0.10 | 0.20
Nc1nc(/C(=N/OCc2cc(O)c(O)c(F)c2)C(=O)NC2C(=O)N3C(C(=O)O)=C(CSc4cnns4)CSC23)cs1 (stereo not shown) [Example 9, Sodium 7-[2-(2-aminothiazol-4-yl)-2(Z)-(5-fluoro-3,4-dihydroxybenzyloxyimino)acetamido]-3-(l,2,3-thiadiazol-5-yl)thiomethyl-3-cephem-4-carboxylate] | 1.56 | 6.25 | < 0.05 | < 0.05 | < 0.05 | 1.56 | 0.78 | < 0.05 | < 0.05 | 0.10 | 0.78
Sodium 7-[2-(2-aminothiazol-4-yl)-2(Z)-(3,4-dihydroxybenzyloxyimino)acetamido]-3-(5-methyl-2-tetrazol-2-yl)thiomethyl-3-cephem-4-carboxylate [Example 6] | 0.39 | 1.56 | 0.05 | 0.10 | 0.10 | 1.56 | 0.78 | 0.20 | 0.20 | 0.10 | 1.56
